Experiment [1] concerns the target T1, KLC1-TPR (Homo sapiens, UniProt Q07866).
T1 construct: KLC1-TPR (residues 228–495, genbank: NP_005543); made in house; host or cells: E. coli BL21(DE3)-CodonPlus-RIL
In words: ITC binding of cytosolic domain of ALC1 protein to KLC1-TPR. The protocol:
(§1) DNAs encoding the TPR domains of KLC1-TPR (residues 228–495, genbank: NP_005543) and KLC2-TPR (residues 217–480, genbank: NP_073733) were amplified by polymerase chain reaction (PCR) using cDNAs obtained from the Mammalian Gene Collection as templates. The PCR products were cloned into a modified version of the expression plasmid pET28-LIC (genbank: EF442785) using an Infusion cloning kit (ClonTech). The KLC1-N343S and KLC2-S328N mutants were prepared with a QuickChange® kit (Stratagene).
(§2) Binding affinities of the JIP1 peptide (Ac-EYTCPTEDIYLE-COOH), ALC1peptide (Ac-EMDWDDSALT-COOH) (synthesized by Tufts University Core Facility), and ALC1 protein to the KLC1-TPR, KLC2-TPR and their mutants were measured by isothermal titration calorimetry (ITC) (VP-ITC microcalorimeter, MicroCal Inc.). Measurements were performed at 25°C by injecting 5–10 µl of peptide solution (1–3 mM) into a sample chamber containing 60–130 µM KLC1-TPR or KLC2-TPR in 20 mM Bis-Tris, pH 6.5, 500 mM sodium chloride, and 0.5 mM TCEP. For the protein-protein interaction, the sample chamber contained 15 µM of KLC1-TPR and 160 µM of the ALC1 protein in a buffer containing 30 mM HEPES 7.4, 200 mM NaCl, 0.5 mM TCEP. The syringe injections containing peptides and proteins were dissolved and dialyzed in the same buffer as the KLC proteins prior to the experiments. A total of 25 injections were performed with an interval of 300 seconds and a reference power of 13 µcal/second. The heat of dilution was controlled with binding isotherms from reference injections containing the peptide alone prior to fitting of the data. ITC data were analyzed using Origin software (MicroCal Inc) and were fit using a one-site binding model.
In order to elucidate a comprehensive view of ALC1 binding to KLC isoforms, the cytosolic domain of ALC1 was purified for the ITC binding studies. […] This would cause the modest increase in binding affinity to KLC1-TPR, compared to the ALC1 peptide. […]

The next experiment deals with T2, KLC1-N343S (Homo sapiens, UniProt Q07866, N343S).
T2 construct: KLC1-TPR (residues 228–495, genbank: NP_005543); made in house; host or cells: E. coli BL21(DE3)-CodonPlus-RIL
Description: ITC binding of JIP1 or ALC1 peptide to KLC1-N343S mutant. The settings on record: 25°C; for ΔS / N (binding stoichiometry) / Kd / ΔH: one-site model, N.B = no binding was observed; for N (binding stoichiometry) / Kd / ΔH: ± SD from fit; for ΔH: peptide 1–3 mM into chamber, 20 mM Bis-Tris pH 6.5, 500 mM NaCl, 0.5 mM TCEP. The protocol:
as §1, §2

Experiment [2] concerns the target T1, KLC1-TPR. Description: ITC binding of JIP1 or ALC1 peptide to KLC1-TPR. Conditions: 25°C; for Kd / ΔH: 20 mM Bis-Tris pH 6.5, 500 mM NaCl, 0.5 mM TCEP; for Kd: Kd determined from Ka of one-site fit, Table 3; for Kd / N (binding stoichiometry) / ΔH: ± SD from fit; for ΔS / N (binding stoichiometry): pH 6.5, 500 mM NaCl; for ΔS / N (binding stoichiometry) / ΔH: one-site model; for ΔH: peptide 1–3 mM injected into 60–130 µM KLC1-TPR. The protocol: as §1, §2

The target of a further experiment is T3, KLC1-N301A (Homo sapiens, UniProt Q07866, N301A).
T3 construct: KLC1-TPR (residues 228–495, genbank: NP_005543); made in house; host or cells: E. coli BL21(DE3)-CodonPlus-RIL
Description: ITC binding of ALC1 peptide to KLC1-N301A mutant. Conditions: 25°C. The protocol:
as §2
Tryptophans at position 903 and 973 of ALC1 are crucial in binding to KLC1 as their mutation to alanines disrupt the interaction. There are two negatively charged aspartic acids and a polar serine residue adjacent to the tryptophans. Due to the similarities of the ALC1 residues to those of JIP1, the recognition of ALC1 by KLC1-TPR could also involve a “clamping” feature. However, such clamp must be different from the JIP1 binding polar patch as N343 is not required for ALC1 binding. Also, residues lining the ALC1 binding clamp should be conserved between KLC1-TPR and KLC2-TPR as ALC1 can interact with both isoforms. Possible candidates are N301 and N344 residues in the inner helices of TPR3 and TPR4 of KLC1-TPR. N301 extends toward the neighboring helix and interacts with N344, and is adjacent to K340 and Q341. As these residues are conserved in KLC2-TPR, N301 of KLC1-TPR was mutated into an alanine (KLC1-N301A) and tested its binding behavior towards ALC1 peptide. […] Together, N301 of KLC1-TPR plays an important role in binding of ALC1, probably by forming one of the ALC1 binding clamps.

The next experiment concerns the target T4, KLC2-S328N (Homo sapiens, UniProt Q9H0B6, S328N).
T4 construct: KLC2-TPR (residues 217–480, genbank: NP_073733); made in house; host or cells: E. coli BL21(DE3)-CodonPlus-RIL
In words: ITC binding of JIP1 peptide to KLC2-S328N mutant. The settings on record: 25°C. The protocol:
as §1, §2

The target of the next experiment is T5, KLC2-TPR (Homo sapiens, UniProt Q9H0B6).
T5 construct: KLC2-TPR (residues 217–480, genbank: NP_073733); made in house; host or cells: E. coli BL21(DE3)-CodonPlus-RIL
Description: ITC binding of JIP1 peptide to KLC2-TPR. The settings on record: 25°C. The protocol:
as §1, §2

Where [3] appears, read: pH 6.5, 500 mM NaCl, one-site model.
Setting [4] is: pH 6.5, 500 mM NaCl, one-site model, ± SD from fit.
[5] abbreviates: peptide 1–3 mM into chamber, 20 mM Bis-Tris pH 6.5, 500 mM NaCl, 0.5 mM TCEP, one-site model, ± SD from fit.
[6] abbreviates: pH 6.5, 500 mM NaCl, N.B = no binding was observed.

“Also recorded” adds a separate entry of the source. Where two headings read alike, the source gives them in different places.

T3 sequence (Q07866 228-495 N301A): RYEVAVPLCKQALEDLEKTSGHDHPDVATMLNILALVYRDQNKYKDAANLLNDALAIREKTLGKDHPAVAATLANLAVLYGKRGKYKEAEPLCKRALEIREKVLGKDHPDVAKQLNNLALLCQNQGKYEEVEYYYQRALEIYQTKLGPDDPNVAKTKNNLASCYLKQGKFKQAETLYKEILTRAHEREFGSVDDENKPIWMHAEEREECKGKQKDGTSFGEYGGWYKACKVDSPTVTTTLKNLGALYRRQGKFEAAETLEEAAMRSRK
T4 sequence (Q9H0B6 217-480 S328N): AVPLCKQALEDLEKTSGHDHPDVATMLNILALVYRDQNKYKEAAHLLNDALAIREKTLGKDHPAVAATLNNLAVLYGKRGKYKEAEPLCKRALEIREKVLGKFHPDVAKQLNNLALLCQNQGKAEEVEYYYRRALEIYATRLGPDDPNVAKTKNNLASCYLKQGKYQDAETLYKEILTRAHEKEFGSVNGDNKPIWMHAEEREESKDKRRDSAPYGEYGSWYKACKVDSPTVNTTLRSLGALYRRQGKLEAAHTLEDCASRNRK
T1 sequence (Q07866 228-495): as the sequence (Q07866 228-495 N301A) above, with A74N counted along it
T5 sequence (Q9H0B6 217-480): as the sequence (Q9H0B6 217-480 S328N) above, with N112S counted along it
T2 sequence (Q07866 228-495 N343S): as the sequence (Q07866 228-495 N301A) above, with A74N, N116S counted along it

For the compound “cytosolic domain of ALC1: purified cytosolic domain of ALC1, containing two KLC1-binding motifs (residues 893–896 and 964–967)”, in the experiment with KLC1-TPR [1] (25°C, 15 µM KLC1-TPR, 160 µM ALC1 protein, 30 mM HEPES 7.4, 200 mM NaCl, 0.5 mM TCEP, one-site model), binding was characterised by a dissociation constant (Kd) of 2.4 µM. Further, in the experiment with KLC1-TPR [1] (25°C, 30 mM HEPES 7.4, 200 mM NaCl, 0.5 mM TCEP, one-site model), the binding stoichiometry is listed as 0.85. For the same compound, the “affinity compared with the ALC1 peptide (in words)” value in the experiment with KLC1-TPR [1] (KLC1-TPR) was “higher affinity than the ALC1 peptide”.

Consider “Ac-EMDWDDSALT-OH [ALC1 peptide, Ac-EMDWDDSALT-COOH]”, for which the ΔS at KLC1-N343S (pH 6.5, 500 mM NaCl) worked out at 14.1 eu; at KLC1-TPR [2], 11.4 eu; at KLC1-N301A (setting [3]) it was 12.9 eu. The “N (binding stoichiometry)” value at KLC1-N343S (pH 6.5, 500 mM NaCl) worked out at 2.13; at KLC1-N343S (pH 6.5, 500 mM NaCl, listed as ALC1) it was 2.13±0.15; at KLC1-TPR [2], 1.85; at KLC1-TPR [2] (listed as ALC1), 1.85±0.04; at KLC1-N301A (setting [4]), 1.02; at KLC1-N301A (pH 6.5, 500 mM NaCl, one-site model, ± SD from fit, listed as ALC1) it was 1.02±0.69. The Kd (commonly the equilibrium constant for the complex coming apart) at KLC1-N343S (pH 6.5, 500 mM NaCl, Table 3, read-out: Kd) came out at 44.3 ± 7.5 µM; on KLC1-TPR [2] it was 50.3 ± 3.1 µM; at KLC1-N301A (pH 6.5, 500 mM NaCl, one-site model, ± SD from fit, Table 3), 179 ± 127 µM. Further, the ΔH at KLC1-N343S was -7.11 ± 0.669 kJ/mol; at KLC1-TPR [2] it was -10.5 ± 0.29 kJ/mol; on KLC1-N301A (setting [5]), -5.02 ± 4.14 kJ/mol. Further, at KLC1-N301A (pH 6.5, 500 mM NaCl), the “affinity compared with wild type KLC1 (in words)” value is on record as “lower affinity than the wild type KLC1”.

On to `CC[C@H](C)[C@H](NC(=O)[C@H](CC(=O)O)NC(=O)[C@H](CCC(=O)O)NC(=O)[C@@H](NC(=O)[C@@H]1CCCN1C(=O)[C@H](CS)NC(=O)[C@@H](NC(=O)[C@H](Cc1ccc(O)cc1)NC(=O)[C@H](CCC(=O)O)NC(C)=O)[C@@H](C)O)[C@@H](C)O)C(=O)N[C@@H](Cc1ccc(O)cc1)C(=O)N[C@@H](CC(C)C)C(=O)N[C@@H](CCC(=O)O)C(=O)O` [JIP1 peptide, Ac-EYTCPTEDIYLE-COOH], for which the “ability to bind (in words)” value at KLC1-N343S (pH 6.5, 500 mM NaCl) was “lost the ability to bind”; on KLC2-S328N (pH 6.5, 500 mM NaCl), “gained binding capacity”. Besides, the ΔS entry on KLC1-N343S (pH 6.5, 500 mM NaCl) was “N.B”; on KLC1-TPR [2], 17.9 eu; on KLC2-S328N (setting [3]), −31.8 eu; at KLC2-TPR (setting [6]) it was “N.B”. Besides, the “N (binding stoichiometry)” value on KLC1-N343S (pH 6.5, 500 mM NaCl) is given as “N.B”; on KLC1-TPR [2], 1.02±0.1; on KLC2-S328N (setting [4]) it was 1.18±0.01; at KLC2-TPR (setting [6]), “N.B”. The Kd result on KLC1-N343S (pH 6.5, 500 mM NaCl, Table 3) was “N.B”; on KLC1-TPR [2], 9.4 ± 5.85 µM; at KLC2-TPR (setting [6]), “N.B”. Further, the ΔH entry at KLC1-N343S was “N.B”; at KLC1-TPR [2] it was -6.36 ± 0.761 kJ/mol; at KLC2-S328N (setting [5]) it was -66.5 ± 6.69 kJ/mol; on KLC2-TPR (peptide 1–3 mM into 60–130 µM KLC2-TPR, 20 mM Bis-Tris pH 6.5, 500 mM NaCl, 0.5 mM TCEP, N.B = no binding was observed), “N.B”. Further, on KLC1-TPR [2] (pH 6.5, Figure S3A), the “interaction with KLC1-TPR (in words)” value was “specifically binds to KLC1-TPR”. Moreover, the “interaction with KLC2-TPR (in words)” value at KLC2-TPR (pH 6.5, 500 mM NaCl) is recorded as “no interaction was detected; also recorded: not to KLC2-TPR”.
